The values below are quoted from earlier work in patent US20050121026A1, “Method for administration of tiotropium” (priority 2003, published 2005).

The conditions of this series: bronchodilator, background statement.

As for `C[N+]1(C)[C@@H]2C[C@@H](OC(=O)C(O)(c3cccs3)c3cccs3)C[C@H]1[C@@H]1O[C@@H]12` [tiotropium bromide], the “Duration of action (may be active for up to)” value was “up to 24 hours”.
